Experimental data as given in patent US9333264B2, “Biocompatible polymeric nanoparticles degrade and release cargo in response to biologically relevant levels of hydrogen peroxide” (The Regents of the University of California, priority 2013, dated 2016).

Tests used:
[1] = Effect of H2O2 on the fluorescence of Nile red; format: physicochemical; conditions: 72 h incubation with 1 mM hydrogen peroxide
Method: The fluorescence of the dye was quenched in aqueous environments, enabling use as a model compound to indicate small molecule release from the hydrophobic nanoparticle interior. Prior to the evaluation of controlled release from our materials, the stability of Nile Red fluorescence in hydrogen peroxide was tested to ensure that the fluorescence quenching observed is not a result of Nile Red exposure to hydrogen peroxide.
Nile red solutions of three different concentrations in acetone were prepared (10, 40, 160 ng/mL). Polymer 1 was dissolved in the Nile red solutions (polymer concentration in all Nile red solutions were constant at 125 μg/mL). Hydrogen peroxide was added to these solutions (concentration in Nile red solutions was constant at 1 mM). Changes in Nile red fluorescence were monitored over a 72 h period using the same instrument settings as reported previously. These experiments were run in duplicate.

[2] = cited from earlier work
dMPRO cells = assay: Extracellular hydrogen peroxide produced by neutrophils; format: cell-based, mouse; conditions: 1.6×10^6 dMPRO cells, after 6 h of PMA treatment
Method: Activated neutrophils generate high ROS. Extracellular hydrogen peroxide produced by neutrophils (differentiated mouse promyleocytes or dMPRO cells) with and without PMA (phorbol 12 myristate 13 acetate) stimulation was measured.
After 6 h of PMA treatment, 1.6×10^6 dMPRO cells produced 6.5 μM H2O2, while untreated cells produced 4.5 μM H2O2. These extracellular levels of H2O2 were much lower than the levels previously seen for Polymer 2, however the concentration of H2O2 inside neutrophil granules appear to be much higher. Fluorescein diacetate (FDA), a non-fluorescent molecule which is cleaved to fluorescein (Ex490/Em520) by cellular esterases, was chosen for the release assay.

Raw264.7 macrophages = assay: ApoTox-Glo assay of viability, cytotoxicity and apoptosis; conditions: staurosporine 5 μM for 5 h; Triton X-100 0.1% for 15 min
Method: In addition, this assay also measures caspase 3/7 activity as a readout for apoptosis (see, FIGS. 7A-7D). […] Staurosporine and 0.1% Triton-X 100 were used as positive controls for induction of apoptosis and cell death, respectively.
Raw264.7 cells were seeded on a 96-well plate at a density of 15000 cells per well. […] The particles were incubated for 5, 24 and 48 h.
Apoptosis (positive control) was induced by addition of staurosporine (5 μM final concentration), followed by incubation for at 37° C. for 5 h. Cytotoxicity (positive control) was induced by addition of triton X-100 (0.1% final concentration), followed by incubation at 37° C. for 15 min. Viability, cytotoxicity and apoptosis were measured using ApoTox-Glo™ assay (Promega) as per manufacturer's protocol. Datasets for each concentration and controls were collected in quadruplicates.

Q: For `CCN(CC)c1ccc2nc3c4ccccc4c(=O)cc-3oc2c1` [Nile red], which “change of Nile Red fluorescence” value [1] is on record?
A: did not change significantly

Q: And the “solubility in aqueous media” value [2]?
A: < 1 µg/mL

Q: Which “extracellular H2O2 produced” value (dMPRO cells) does the source give for `CCCCCCCCCCCCCC(=O)O[C@@H]1[C@@H](C)[C@@]2(O)[C@@H](C=C(CO)C[C@]3(O)C(=O)C(C)=C[C@@H]23)[C@@H]2C(C)(C)[C@]12OC(C)=O` [PMA, phorbol 12 myristate 13 acetate] here?
A: 6.5 µM

Q: With `CN[C@@H]1C[C@H]2O[C@@](C)([C@@H]1OC)n1c3ccccc3c3c4c(c5c6ccccc6n2c5c31)C(=O)NC4` [staurosporine] as the molecule, how does the “apoptosis and cell viability, positive controls” value (Raw264.7 macrophages) read?
A: apoptosis and loss of cell viability was observed

Q: With Triton X-100 as the molecule, how does the “apoptosis and cell viability, positive controls” value (Raw264.7 macrophages) read?
A: apoptosis and loss of cell viability was observed
